Measured values: patent publication US7731985B2, “4-aminopyrimidines and their use for the antimicrobial treatment of surfaces” (Ciba Specialty Chemicals Corporation, priority 2002, dated 2010)

Legend:
Experiment in all cases: MIC in microtitre plates (Example 10)
Format in all cases: cell-based
Design in all cases: unit not given here
Conditions in all cases: microtitre plate, 48 hours at 37° C., ≦20% growth
[1] = test system: Staphylococcus aureus ATCC 9144 (=SA)
Method: (§1) Determination of the Minimum Inhibitory Concentration (MIC Value) in Microtitre Plates Casein/soymeal peptone broth for preparation of pre-cultures of test bacteria and yeast Bacteria: • Pseudomonas aeruginosa CIP A-22 (=PA) • Escherichia coli NCTC 8196 (=EC) • Staphylococcus aureus ATCC 9144 (=SA) • Candida albicans ATCC 10231 (=CA) The test substances are pre-dissolved in dimethyl sulfoxide (DMSO) and tested in a dilution series of 1:2. Bacteria and yeast are cultured overnight in CASO broth. All the test organism suspensions are adjusted to an organism count of 1-5×10^6 CFU/ml using […] sodium chloride solution. The test substances are pre-pipetted into microtitre plates in amounts of 8 μl per well. The pre-adjusted organism suspensions are diluted 1:100 in CASO broth and are added in amounts of 192 μl per well to the test substances. The test batches are incubated for 48 hours at 37° C. The incubation, the growth is determined on the basis of the turbidity of the test batches (optical density) at 620 nm in a microplate reader. The minimum inhibitory concentration (MIC value) is the concentration of substance at which (compared to the growth of the control) an appreciable inhibition of growth (≦20% growth) of the test organisms is observed. Three microtitre plates are used for each test organism and substance concentration. All the substances are tested in duplicate.

[2] = test system: Candida albicans ATCC 10231 (=CA)
Method: as §1

[3] = test system: Escherichia coli NCTC 8196 (=EC)
Method: as §1

[4] = test system: Pseudomonas aeruginosa CIP A-22 (=PA)
Method: as §1

| Structure (SMILES) | MIC SA [1] | MIC CA [2] | MIC EC [3] | MIC PA [4] |
| --- | --- | --- | --- | --- |
| CCCCCCCCCCCCCNc1cc(C)nc(-c2cccnc2)n1 [compound 37] | 7.5 | 7.5 | 15 | >120 |
| CCCCCCCCCCCCCCNc1cc(C)nc(-c2cccnc2)n1 [compound 38] | <3.75 | <3.75 | 7.5 | >120 |
| CCCCCCCCCCCCCCCCNc1cc(C)nc(-c2cccnc2)n1 [compound 39] | <3.75 | 15 | 30 | >120 |
| CCCC(C)Nc1cc(C)nc(-c2cccnc2)n1 (centres unmarked) [compound 40] | 60 | 120 | >120 | >120 |
| Cc1cc(NC(C)CC(C)C)nc(-c2cccnc2)n1 (centres unmarked) [compound 41] | 30 | 60 | >120 | >120 |
| CCCCC(CC)CNc1cc(C)nc(-c2cccnc2)n1 (centres unmarked) [compound 42] | <3.75 | 30 | 120 | >120 |
| COCC(C)Nc1cc(C)nc(-c2cccnc2)n1 (centres unmarked) [compound 43] | 60 | 120 | >120 | >120 |
| CCN(CC)CCCNc1cc(C)nc(-c2cccnc2)n1 [compound 44] | 120 | 120 | >120 | >120 |
| Cc1cc(NCc2ccccc2)nc(-c2cccnc2)n1 [compound 45] | 60 | 120 | >120 | >120 |
| Cc1cc(NC2CCCCC2)nc(-c2cccnc2)n1 [compound 46] | 120 | 120 | >120 | >120 |
| Cc1cc(Nc2ccccn2)nc(-c2cccnc2)n1 [compound 47] | 120 | >120 | >120 | >120 |
| Cc1cc(NCCc2ccccc2)nc(-c2cccnc2)n1 [compound 48] | 30 | 60 | >120 | >120 |
| Cc1cc(NCc2ccccn2)nc(-c2cccnc2)n1 [compound 49] | 120 | >120 | >120 | >120 |
| Cc1cc(N2CCOCC2)nc(-c2cccnc2)n1 [compound 50] | 120 | >120 | >120 | >120 |
| Cc1cc(NCc2ccco2)nc(-c2cccnc2)n1 [compound 51] | 30 | >120 | >120 | >120 |
| CCCN(CCC)c1cc(C)nc(-c2cccnc2)n1 [compound 52] | 30 | 120 | >120 | >120 |
| CCCCN(C)c1cc(C)nc(-c2cccnc2)n1 [compound 53] | 60 | 120 | >120 | >120 |
| CCCCN(CCCC)c1cc(C)nc(-c2cccnc2)n1 [compound 54] | 15 | 120 | >120 | >120 |
| Cc1cc(N(C)CCO)nc(-c2cccnc2)n1 [compound 55] | 120 | >120 | >120 | >120 |

The remaining lines, values ahead:

| MIC SA [1] | MIC CA [2] | MIC EC [3] | MIC PA [4] | Structure (SMILES) |
| --- | --- | --- | --- | --- |
| 60 | 120 | >120 | >120 | Cc1cc(N2CCCCCC2)nc(-c2cccnc2)n1 [compound 56] |
| 60 | 120 | >120 | >120 | CCCCCCCCNc1cc(C)nc(-c2ccc(-c3ccccc3)cc2)n1 [compound 57] |
| 15 | 60 | 120 | >120 | CCCCCCCCNc1cc(C)nc(-c2ccc(C(C)(C)C)cc2)n1 [compound 58] |
| 15 | 60 | 60 | >120 | CCCCCCCCNc1cc(C)nc(-c2cccs2)n1 [compound 59] |
| 120 | 120 | >120 | >120 | CCCCCCCCNc1cc(C)nc(-c2cccc(C)c2)n1 [compound 60] |
| 30 | 120 | 120 | >120 | CCCCCCCCNc1cc(C)nc(-c2cccc(F)c2)n1 [compound 61] |
| 60 | 120 | 120 | >120 | CCCCCCCCNc1cc(C)nc(-c2cccc(OC)c2)n1 [compound 62] |
| 15 | 60 | 30 | >120 | CCCCCCCCNc1cc(C)nc(-c2ccccc2)n1 [compound 63] |
| 7.5 | 15 | 30 | >120 | CCCCCCCCNc1cc(C)nc(-c2ccccc2)n1 [compound 64] |
| 30 | 15 | 60 | >120 | CCCCCCCCNc1cc(C)nc(C)n1 [compound 65] |
| <3.75 | 30 | 30 | >120 | CCCCCCCCNc1cc(C)nc(-c2ccc(C)cc2)n1 [compound 66] |
| 7.5 | 7.5 | 30 | >120 | CCCCCCCCNc1cc(C)nc(C2CC2)n1 [compound 67] |
| 15 | 15 | 30 | >120 | CCCCCCCCNc1cc(C)nc(C(C)C)n1 [compound 68] |
| <3.75 | 7.5 | 30 | >120 | CCCCCCCCNc1cc(C)nc(-c2csc(C)n2)n1 [compound 69] |
| <3.75 | 7.5 | 15 | >120 | CCCCCCCCNc1cc(C)nc(-c2ccc(C)c(F)c2)n1 [compound 70] |
| 7.5 | 7.5 | 15 | >120 | CCCCCCCCCCCCCCNc1cc(C)nc(-c2ccc(-c3ccccc3)cc2)n1 [compound 71] |
| 7.5 | 7.5 | 15 | >120 | CCCCCCCCCCCCCCNc1cc(C)nc(-c2ccc(C(C)(C)C)cc2)n1 [compound 72] |
| <3.75 | <3.75 | 7.5 | >120 | CCCCCCCCCCCCCCNc1cc(C)nc(-c2cccs2)n1 [compound 73] |
| <3.75 | <3.75 | 7.5 | >120 | CCCCCCCCCCCCCCNc1cc(C)nc(-c2ccsc2)n1 [compound 74] |
